According to patent US11319306B2, “Compositions and methods for treating neurodegenerative diseases” (Azevan Pharmaceuticals, Inc., priority 2014, dated 2022):
pIC50, pKi: −log10 of the molar value.

Target: T1, human V1a receptor (Homo sapiens, UniProt P37288)
T1 construct: host or cells: CHO cells (hV1a cell line)
Assay: Human vasopressin V1a receptor binding assay (3H-AVP competition, hV1a CHO cells)
Settings: 3H-AVP competition, CHO cells expressing human V1a; for pKi: read-out: V1a Ki; for pIC50: read-out: V1a Binding Affinity IC50
Method: Human vasopression V1a receptor binding assay. A cell line expressing the human V1a receptor in CHO cells (henceforth referred to as the hV1a cell line) was obtained from Dr. Michael Brownstein, NIMH, Bethesda, Md., USA. The hV1a cDNA sequence is described by Thibonnier et al., Journal of Biological Chemistry, 269, 3304-3310 (1994), and the expression method was the same as described by Morel et al. (1992). The hV1a cell line was grown in alpha-MEM with 10% fetal bovine serum and 250 ug/ml G418 (Gibco, Grand Island, N.Y., USA). For competitive binding assay, hV1a cells were plated into 6-well culture plate at 1:10 dilution from a confluency flask, and maintained in culture for at least two days. Culture medium was then removed, cells were washed with 2 ml binding buffer (25 mM Hepes, 0.25% BSA, 1×DMEM, PH=7.0). To each well, 990 μl binding buffer containing InM 3H-AVP was added, and followed by 10 μl series diluted Example compounds dissolved in DMSO. […] 100 nM cold AVP (Sigma) was used to assess non-specific binding. Cells were incubated for 45 minutes at 37° C., assay mixture was removed and each well was washed three times with PBS (pH=7.4). 1 ml 2% SDS was added per well and plates were let sit for 30 minutes. The whole content in a well was transferred to a scintillation vial. Each well was rinsed with 0.5 ml PBS which was then added to the corresponding vial. Scintillation fluid (Ecoscint, National Diagnostics, Atlanta, Ga.) was then added at 3 ml per vial. Samples were counted in a liquid scintillation counter (Beckman LS3801). IC50 values were calculated by Prism Curve fitting software.
All of the alkanedioic esters and amides exemplified in the foregoing examples dissolved in DMSO were tested in this assay. Binding curves were generated according to methods described by Thibonnier et al. (1994). [^3H]-AVP was added to the hV1a cell cultures followed by 10-fold dilutions of each test compound.

T1 sequence (P37288 whole entry): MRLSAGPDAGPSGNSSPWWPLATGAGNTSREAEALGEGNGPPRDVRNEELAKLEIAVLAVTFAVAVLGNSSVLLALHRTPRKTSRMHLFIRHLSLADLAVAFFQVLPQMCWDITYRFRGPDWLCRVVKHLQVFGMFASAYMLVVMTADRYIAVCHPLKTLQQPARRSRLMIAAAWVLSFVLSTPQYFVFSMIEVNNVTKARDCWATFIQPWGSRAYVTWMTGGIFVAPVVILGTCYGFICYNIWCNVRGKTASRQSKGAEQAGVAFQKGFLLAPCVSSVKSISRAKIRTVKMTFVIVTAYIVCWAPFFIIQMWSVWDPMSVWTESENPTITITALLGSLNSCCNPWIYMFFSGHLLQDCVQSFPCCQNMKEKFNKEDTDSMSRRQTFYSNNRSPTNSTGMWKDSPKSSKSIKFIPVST

SMILES	pKi	pIC50
O=C(NCc1cccc(C(F)(F)F)c1)C(C(=O)N1CCN(CCc2ccccc2)CC1)N1C(=O)[C@@H](N2C(=O)OC[C@@H]2c2ccccc2)[C@H]1/C=C/c1ccccc1 (mixture of isomers) [Example 38]	7.07	
CC(C)N1CCN(C(=O)C(C(=O)NCc2cccc(C(F)(F)F)c2)N2C(=O)[C@@H](N3C(=O)OC[C@@H]3c3ccccc3)[C@H]2/C=C/c2ccccc2)CC1 (mixture of isomers) [Example 41]	7.74	
O=C(NCc1cccc(C(F)(F)F)c1)C(C(=O)N1CCN(C2CCCCC2)CC1)N1C(=O)[C@@H](N2C(=O)OC[C@@H]2c2ccccc2)[C@H]1/C=C/c1ccccc1 (mixture of isomers) [Example 42]	7.58	
O=C(NC(c1ccccc1)C(F)(F)F)C(CC(=O)N1CCC(N2CCCCC2)CC1)N1C(=O)C(N2C(=O)OCC2c2ccccc2)C1C=Cc1ccccc1 (single isomer, unassigned) [Example 623]	9.07	
O=C(NC(c1ccccc1)C(F)(F)F)C(CC(=O)N1CCC(N2CCCCC2)CC1)N1C(=O)C(N2C(=O)OCC2c2ccccc2)C1C=Cc1ccccc1 (single isomer, unassigned) [Example 626]	9.57	
CC(C)(C)OC(=O)C(C(=O)NCc1cccc(C(F)(F)F)c1)N1C(=O)C(N2C(=O)OCC2c2ccccc2)C1C=Cc1ccccc1 [Example 18, 2(RS)-(tert-Butoxycarbonyl)-2-[3(S)-(4(S)-phenyloxazolidin-2-on-3-yl)-4(R)-(2-styryl)azetidin-2-on-1-yl]acetic acid N-(3-trifluoromethylbenzyl)amide]		7.46
CC(C)(C)OC(=O)CC(C(=O)NCc1cccc(C(F)(F)F)c1)N1C(=O)C(N2C(=O)OCC2c2ccccc2)C1C=Cc1ccccc1 [Example 19, 2(S)-(tert-Butoxycarbonylmethyl)-2-[3(S)-(4(S)-phenyloxazolidin-2-on-3-yl)-4(R)-(2-styryl)azetidin-2-on-1-yl]acetic acid N-(3-trifluoromethylbenzyl)amide]		7.46
CC(C)(C)OC(=O)CCC(C(=O)NCc1cccc(C(F)(F)F)c1)N1C(=O)C(N2C(=O)OCC2c2ccccc2)C1C=Cc1ccccc1 [Example 20, 2(S)-(tert-Butoxycarbonylethyl)-2-[3(S)-(4(S)-phenyloxazolidin-2-on-3-yl)-4(R)-(2-styryl)azetidin-2-on-1-yl]acetic acid N-(3-trifluoromethylbenzyl)amide]		7.46
O=C(NCc1cccc(C(F)(F)F)c1)C(C(=O)N1CCC(N2CCCCC2)CC1)N1C(=O)C(N2C(=O)OCC2c2ccccc2)C1C=Cc1ccccc1 (stereo not shown) [Example 37]	8.47	8.26
O=C(NCc1cccc(C(F)(F)F)c1)C(C(=O)NC1CCN(Cc2ccccc2)CC1)N1C(=O)C(N2C(=O)OCC2c2ccccc2)C1C=Cc1ccccc1 (stereo not shown) [Example 39]	7.88	7.64
CCCCN1CCN(C(=O)C(C(=O)NCc2cccc(C(F)(F)F)c2)N2C(=O)C(N3C(=O)OCC3c3ccccc3)C2C=Cc2ccccc2)CC1 (stereo not shown) [Example 40]	8.19	7.96
O=C(NCc1cccc(C(F)(F)F)c1)C(C(=O)N1CCC(CCN2CCCCC2)CC1)N1C(=O)C(N2C(=O)OCC2c2ccccc2)C1C=Cc1ccccc1 (stereo not shown) [Example 42A]	8.93	8.75
O=C(CC(C(=O)NCc1cccc(C(F)(F)F)c1)N1C(=O)C(N2C(=O)OCC2c2ccccc2)C1C=Cc1ccccc1)NC1CCN(Cc2ccccc2)CC1 (stereo not shown) [Example 63]	8.95	8.74
O=C(NCc1cccc(C(F)(F)F)c1)[C@H](CC(=O)N1CCCN(Cc2ccccc2)CC1)N1C(=O)[C@@H](N2C(=O)OC[C@@H]2c2ccccc2)[C@H]1/C=C/c1ccccc1 [Example 82]	8.29	
O=C(CC(C(=O)NCc1cccc(C(F)(F)F)c1)N1C(=O)C(N2C(=O)OCC2c2ccccc2)C1C=Cc1ccccc1)NC1CCN(Cc2ccccc2)C1 (stereo not shown) [Example 85]	8.44	8.23
O=C(NCc1cccc(C(F)(F)F)c1)C(CC(=O)N1CCC(CCN2CCCCC2)CC1)N1C(=O)C(N2C(=O)OCC2c2ccccc2)C1C=Cc1ccccc1 (stereo not shown) [Example 86A]	8.22	8.01
O=C(CC[C@@H](C(=O)NCc1cccc(C(F)(F)F)c1)N1C(=O)[C@@H](N2C(=O)OC[C@@H]2c2ccccc2)[C@H]1/C=C/c1ccccc1)NCCN1CCCCC1 [Example 87]		7.82
O=C(NCc1cccc(C(F)(F)F)c1)[C@H](CCC(=O)N1CCN(N2CCCC2)CC1)N1C(=O)[C@@H](N2C(=O)OC[C@@H]2c2ccccc2)[C@H]1/C=C/c1ccccc1 [Example 91]	8.70	8.49
O=C(NCc1cccc(C(F)(F)F)c1)C(CCC(=O)N1CCN(Cc2ccccc2)CC1)N1C(=O)C(N2C(=O)OCC2c2ccccc2)C1C=Cc1ccccc1 (stereo not shown) [Example 95]	8.97	8.75

SMILES	pKi	pIC50
O=C(NCc1cccc(C(F)(F)F)c1)C(CCC(=O)N1CCN(Cc2ccc3c(c2)OCO3)CC1)N1C(=O)C(N2C(=O)OCC2c2ccccc2)C1C=Cc1ccccc1 (stereo not shown) [Example 96]	8.58	8.36
O=C(NCc1cccc(C(F)(F)F)c1)C(CCC(=O)N1CCN(CCC2CCCCC2)CC1)N1C(=O)C(N2C(=O)OCC2c2ccccc2)C1C=Cc1ccccc1 (stereo not shown) [Example 111]	9.09	8.88
O=C(NCc1cccc(C(F)(F)F)c1)C(CCC(=O)N1CCN(CCN2CCOCC2)CC1)N1C(=O)C(N2C(=O)OCC2c2ccccc2)C1C=Cc1ccccc1 (stereo not shown) [Example 112]	9.10	8.87
O=C(NCc1cccc(C(F)(F)F)c1)C(CCC(=O)N1CCC(CCN2CCCCC2)CC1)N1C(=O)C(N2C(=O)OCC2c2ccccc2)C1C=Cc1ccccc1 (stereo not shown) [Example 120A]	8.00	7.79
CCCN1CCN(C(=O)CCC(C(=O)NCc2cccc(C(F)(F)F)c2)N2C(=O)C(N3C(=O)OCC3c3ccccc3)C2C=Cc2ccccc2)CC1 (stereo not shown) [Example 120B]	8.75	8.53
O=C(NCc1cccc(C(F)(F)F)c1)C(CCC(=O)N1CCN(CC2CCCCC2)CC1)N1C(=O)C(N2C(=O)OCC2c2ccccc2)C1C=Cc1ccccc1 (stereo not shown) [Example 120]	9.34	9.12
O=C(NC1(c2ccccc2)CCCC1)C(CC(=O)N1CCC(N2CCCCC2)CC1)N1C(=O)C(N2C(=O)OCC2c2ccccc2)C1C=Cc1ccccc1 (stereo not shown) [Example 132D]	8.41	8.20
O=C(NCc1cccc(C(F)(F)F)c1)C(CC(=O)N1CCC(CCN2CCCCC2)CC1)N1C(=O)C(N2C(=O)OCC2c2ccccc2)C1C=Cc1ccccc1 (stereo not shown) [Example 134A]	8.10	7.89
O=C(NCc1cccc(C(F)(F)F)c1)[C@@H](CC(=O)N1CCN(N2CCCC2)CC1)N1C(=O)[C@@H](N2C(=O)OC[C@@H]2c2ccccc2)[C@H]1/C=C/c1ccccc1 [Example 134B]	7.56	7.35
O=C(CC(C(=O)NCc1cccc(C(F)(F)F)c1)N1C(=O)C(N2C(=O)OCC2c2ccccc2)C1C=Cc1ccccc1)NC1CCN(Cc2ccccc2)CC1 (stereo not shown) [Example 134C]	8.25	8.04
O=C(NCc1cccc(C(F)(F)F)c1)C(CC(=O)N1CCC(CN2CCCCC2)CC1)N1C(=O)C(N2C(=O)OCC2c2ccccc2)C1C=Cc1ccccc1 (stereo not shown) [Example 134G]	8.43	8.22
CC(C)(NC(=O)C(CC(=O)N1CCC(N2CCCCC2)CC1)N1C(=O)C(N2C(=O)OCC2c2ccccc2)C1C=Cc1ccccc1)c1ccccc1 (stereo not shown) [Example 134J]	8.49	8.28
O=C(NCc1cccc(C(F)(F)F)c1)C(CCC(=O)N1CCN(CCc2ccccc2)CC1)N1C(=O)C(N2C(=O)OCC2c2ccccc2)C1C=Cc1ccccc1 (stereo not shown) [Example 136]	7.48	7.96
CCCCN1CCN(C(=O)CCC(C(=O)NCc2cccc(C(F)(F)F)c2)N2C(=O)C(N3C(=O)OCC3c3ccccc3)C2C=Cc2ccccc2)CC1 (stereo not shown) [Example 137]	7.98	7.77
CC(C)N1CCN(C(=O)CCC(C(=O)NCc2cccc(C(F)(F)F)c2)N2C(=O)C(N3C(=O)OCC3c3ccccc3)C2C=Cc2ccccc2)CC1 (stereo not shown) [Example 138]	7.89	7.68
O=C(NCc1cccc(C(F)(F)F)c1)C(CCC(=O)N1CCN(C2CCCCC2)CC1)N1C(=O)C(N2C(=O)OCC2c2ccccc2)C1C=Cc1ccccc1 (stereo not shown) [Example 139]	8.23	8.02
O=C(NCc1cc(F)cc(F)c1)[C@H](CCC(=O)N1CCN(C2CCCCC2)CC1)N1C(=O)[C@@H](N2C(=O)OC[C@@H]2c2ccccc2)[C@H]1/C=C/c1ccccc1 [Example 185]	9.09	
COc1cccc(C(C)NC(=O)C(CCC(=O)N2CCN(C3CCCCC3)CC2)N2C(=O)C(N3C(=O)OCC3c3ccccc3)C2C=Cc2ccccc2)c1 (stereo not shown) [Example 203]	8.82	8.61
CCN1CCC[C@H]1CNC(=O)CC[C@@H](C(=O)N[C@@H]1CCCc2ccccc21)N1C(=O)[C@@H](N2C(=O)OC[C@@H]2c2ccccc2)[C@H]1/C=C/c1ccccc1 [Example 221AI]		~7.30
